Measurements reported in patent publication US6599931B1, “Test system for characterizing the compatibility of bioactive substances and polyvinylpyrrolidone” (Abbott GmbH & Co. KG, priority 1998, dated 2003).

Tests used:
[1] = Dissolving and recrystallization behavior of active ingredient in 1,3-bis(1-pyrrolidonyl)butane (DHVP) test system; conditions: for RT: solution in DHVP: room temperature; for Sol. at (temperature at which solution forms): heated; for solubility in DHVP: comparison
Excerpt: The ratios of the amounts can in principle be chosen without restriction and naturally depend essentially on the properties of the active ingredient. However, it is advisable to choose the concentration ranges in the test system so that they correspond to active ingredient contents typical of extruded forms, that is to say generally from 0.1 to 70, preferably 10 to 30% by weight of active ingredient, based on the total weight of the test system. However, it is also possible in the individual case to prepare solutions or dispersions with a concentration of 60% by weight or even higher. It is preferred to carry out test series with increasing active ingredient contents. The active ingredient(s) are weighed out, mixed with the appropriate amounts of DHVP and preferably stirred, normally with a typical laboratory magnetic stirrer at 5 to 200 rpm. […] The heating is preferably carried out so as to correspond approximately to the heating rate in a subsequent melt formulation, that is to say at 0.5 to 5° C./min. The test system is preferably heated to a maximum of 140° C. However, it is also possible in the individual case to heat to the boiling point of DHVP. The test system is then allowed to cool to room temperature.
The prepared test systems are assessed spectroscopically. […] The recrystallization behavior is also assessed. The recrystallization behavior immediately after cooling to room temperature is an important criterion especially for test systems in which the active ingredient has been induced to dissolve by heating.
leaving to stand at room temperature for 24 hours
Investigation is always of whether the active ingredient has recrystallized out of the solution.

[2] = Melt extrudate with PVP K 30: formation of solid solution; format: physicochemical; conditions: for Extrudate: solution (solid): 30% by weight in PVP, melt extrudate with PVP K 30; for solid solution with PVP: comparison
[3] = Solubility in DMSO (comparison)

| SMILES | Recryst. (recrystallization) ([1]; 10% by weight in DHVP) | RT: solution in DHVP ([1]; 10% by weight in DHVP) | Recryst. after (time to recrystallization) ([1]; 30% by weight in DHVP) [h] | Sol. at (temperature at which solution forms) ([1]; 30% by weight in DHVP) | RT: solution in DHVP ([1]; 30% by weight in DHVP) | Extrudate: solution (solid) [2] | Sol. at (temperature at which solution forms) ([1]; 10% by weight in DHVP) | Recryst. (recrystallization) ([1]; 30% by weight in DHVP) | solubility in DHVP [1] | solubility in DMSO (dimethyl sulfoxide) [3] | solid solution with PVP [2] |
| --- | --- | --- | --- | --- | --- | --- | --- | --- | --- | --- | --- |
| CCS(=O)(=O)Oc1ccc2c(C)c(C)c(=O)oc2c1 [Esuprone] | Recryst.: − | RT: + | 20 | Sol. at 70 °C | RT: − | + |  |  |  |  |  |
| COc1ccc(CCN(C)CCCC(C#N)(c2cc(OC)c(OC)c(OC)c2)C(C)C)cc1OC.Cl (stereo not shown) [Gallopamil HCl] | Recryst.: − | RT: + | 96 | Sol. at 60 °C | RT: − | + | Sol. at 60 °C |  |  |  |  |
| CC(C)Cc1ccc(C(C)C(=O)O)cc1 (stereo not shown) [Ibuprofen] | Recryst.: − | RT: + |  |  | RT: + | + |  | Recryst.: − | soluble | soluble | solid solution |
| Cn1c(=O)c2[nH]cnc2n(C)c1=O [Theophylline] |  |  |  |  |  |  |  |  | insoluble | soluble | no solid solution |

More lines, main results first:

| Recryst. (recrystallization) ([1]; 10% by weight in DHVP) | RT: solution in DHVP ([1]; 10% by weight in DHVP) | Recryst. after (time to recrystallization) ([1]; 30% by weight in DHVP) [h] | Sol. at (temperature at which solution forms) ([1]; 30% by weight in DHVP) | RT: solution in DHVP ([1]; 30% by weight in DHVP) | Extrudate: solution (solid) [2] | Sol. at (temperature at which solution forms) ([1]; 10% by weight in DHVP) | Recryst. (recrystallization) ([1]; 30% by weight in DHVP) | SMILES | solubility in DHVP [1] | solubility in DMSO (dimethyl sulfoxide) [3] | solid solution with PVP [2] |
| --- | --- | --- | --- | --- | --- | --- | --- | --- | --- | --- | --- |
| Recryst.: − | RT: − |  | Sol. at 90 °C | RT: − | + | Sol. at 90 °C | Recryst.: − | CC(=O)Nc1ccc(O)cc1 [Paracetamol] |  |  |  |
| Recryst.: − | RT: + | 40 | Sol. at 70 °C | RT: − | + |  |  | CN(C)CCOC1=Cc2ccccc2Sc2ccc(Cl)cc21 [Zotepine] |  |  |  |
